Experimental findings from patent US11161845B2, “Pyrrolopyridine-aniline compounds for treatment of dermal disorders” (Nflection Therapeutics, Inc., priority 2017, dated 2021) are described below.

The test system of data set [1] is MDCK-MDR1 cells. The experiment in a line: MDCK-MDR1 bi-directional transport assay. The settings on record: 5 μM. The procedure:
(§1) MDCK-MDR1 is a stable-transfected cell line originating from MDCK cells, with over-expression of human MDR1 gene. The cell line is widely used for the identification and characterization of P-gp substrates and inhibitors.
(§2) MDCK-MDR1 cells were plated into 96-well Millipore Millicell-96 plates at 7,500 cells/75 μL/well and incubated for three days at 37° C. with 5% CO2. Cells were washed with Hank's Balanced Salt Solution (HBSS) with 5 mM HEPES for 30 minutes before starting the experiment. Test compound solutions were prepared by diluting DMSO stock into HBSS buffer, resulting in a final DMSO concentration of 0.1%. Prior to the experiment, cell monolayer integrity was verified by […] electrical resistance (TEER). Transport experiment was initiated by adding test compounds to the apical (75 μL) or basal (250 μL) side. Transport plates were incubated at 37° C. in a humidified incubator with 5% CO2. Samples were taken from the donor and acceptor compartments after one hour and analyzed by liquid chromatography with tandem mass spectrometry (LC/MS/MS).
(§3) Digoxin was used as reference control.
(§4) Apparent permeability (Papp) values were calculated using the following equation: Papp=(dQ/dt)/A/Co; where dQ/dt is the initial rate of amount of test compound transported across cell monolayer, A is the surface area of the filter membrane, and Co is the initial concentration of the test compound, calculated for each direction using a 4-point calibration curve by LC/MS/MS.
(§5) Net flux ratio between the two directional transports was calculated by the following equation: Ratio=Papp, B-A/Papp, A-B; where Papp, B-A and Papp, A-B represent the apparent permeability of test compound from the basal-to-apical and apical-to-basal side of the cellular monolayer, respectively.
(§6) Recovery was calculated based on the compound concentration at the end of the experiment, compared to that at the beginning of the experiment, adjusted for volumes.
(§7) A net flux ratio greater than two was considered a positive result for substrate determination. […] If the addition of a known P-gp inhibitor to the experiment reduces the net flux ratio by a significant amount (more than 50% reduction or reduces the ratio to close to unity), it is likely that the compound tested is a P-gp substrate.

For data set [2], the system named is P-gp (human MDR1). Nature of the data set: MDCK-MDR1 bi-directional transport assay. The settings on record: dog; for Papp A→B at 1 h, 5 μM / Papp B→A at 1 h, 5 μM: MDCK-MDR1, Papp. As to the method: as §1, §2, §3, §4, §5, §6, §7
Data set [3] concerns the target T1, MEK1 (Homo sapiens, UniProt Q02750).
T1 construct: N-terminal His-tagged recombinant human full length protein; His (N); purchased Invitrogen PV3303; host or cells: insect cells
The experiment in a line: MEK inhibition assay, Biological Example 1a (33P-ATP, P81 filter-binding). The conditions noted are these: read-out: Assay 1: biochemical MEK IC50. The procedure: MEK1 inhibitory activity of compounds were tested using the following procedure. […] Activated in vitro by RAF1. MW=49.2 kDa, GenBank Accession No. NP_002746. • Substrate: 5 μM ERK2 (K52R), • Kinase-dead mutant, (GenBank Accession No. NM_0011949), aa2-358 with N-terminal His6 tag, MW=43.63 kDa, expressed in E. coli.
The substrate was prepared in freshly prepared Reaction Buffer. The kinase was delivered into the substrate solution and gently mixed. Test compounds were delivered in 100% DMSO into the kinase reaction mixture by Acoustic technology (Echo550; nanoliter range), and incubated for 20 min at room temperature. ^33P-ATP was delivered into the reaction mixture to initiate the reaction. The reaction mixture was incubated for 2 hours at room temperature. Kinase activity was detected by P81 filter-binding method.

Data set [4] can be described thus: S9 stability assay, human liver S9 fraction. In kind it is in vitro ADME. The conditions noted are these: for CLint: known MEK compounds; for microsomal CLint at 1 μM / half-life at 1 μM: pH 7.4, Table 1, human liver S9 fraction; for microsomal CLint at 1 μM: read-out: CLint; for half-life at 1 μM: read-out: Liver S9 t1/2. The procedure: Compounds were assessed for metabolic stability in human skin by assessing their rate of disappearance from human S9 skin fraction. Similarly, compounds were assessed for metabolic stability in human liver by assessing their rate of disappearance from human S9 liver fraction. The protocol below can be used to assess the difference between skin and hepatic metabolism.
The assay was carried out in 96-well microtiter plates at 37° C. Reaction mixtures (25 μL) contained a final concentration of 1 μM test compound, 2 mg/mL liver or skin S9 protein, and 1 mM NADPH in buffer (100 mM potassium phosphate, pH 7.4 buffer with 1 mM EDTA, 3 mM MgCl2). At each of the time points (0, 15, 30, and 60 minutes), 150 μL of quench solution (100% acetonitrile with 0.1% formic acid) with internal standard was transferred to each well. Besides the zero minute controls, mixtures containing the same components except the NADPH were also prepared as the negative control. Verapamil or testosterone was included as a positive control to verify assay performance. Plates were sealed and centrifuged at 4° C. for 15 minutes at 4000 rpm. The supernatant was transferred to fresh plates for LC/MS/MS analysis.
All samples were analyzed on LC/MS/MS using an AB Sciex API 4000 instrument, coupled to a Shimadzu LC-20AD LC Pump system. Analytical samples were separated using a Waters Atlantis T3 dC18 reverse phase HPLC column (20 mm×2.1 mm) at a flow rate of 0.5 mL/min. The mobile phase consisted of 0.1% formic acid in water (solvent A) and 0.1% formic acid in 100% acetonitrile (solvent B).
The extent of metabolism was calculated as the disappearance of the test compound, compared to the 0-min control reaction incubations. Initial rates were calculated for the compound concentration and used to determine t1/2 values and subsequently, the intrinsic clearance, CLint=(0.693) (1/t1/2 (min)) (mL incubation/mg of S9 protein).

Data set [5] can be described thus: Compound levels in neck/back skin (LCMS), in vivo mouse model. Further details: species or system mice. The conditions noted are these: topical 1% trametinib. As to the method:
(§8) Week 4 (Experiment end): Skin and blood were collected right before the last morning dose (N=3), 1 hour (N=3 mice), and 2 hours (N=3 mice) after final application; Blood draw: Plasma compound levels (LCMS); Skin biopsy: formalin fixed for histology and p-ERK staining, flash frozen for Western analysis and skin compound levels (LCMS)
Skin biopsy and GI tract sampling: Skin was wiped down with 100% ethanol and a 1 cm^2 biopsy was obtained from compound application site each mouse at the 25 day end of experiment (except as noted below). The skin was biopsied prior to final dose from 3 mice, 1 hour after last compound application from 3 mice, 2 hours after last compound application from 3 mice. Half of the specimen were immediately flash frozen for LCMS analysis and Western Blot Analysis. Half of the specimen was fixed for 24 hours in 10% formalin and then transferred to ethanol for immunohistochemistry. Gastrointestinal tract was also formalin fixed overnight then transferred to 70% ETOH for storage.
(§9) Compound level analysis: Liquid chromatography with mass spectrometry method (LCMS) was used to detect compound levels in the skin and plasma. Tissues were preprocessed prior to LCMS as follows. Tissues were minced and incubated with collagenase and then finally homogenized using the stainless steel beads prior to LCMS analysis. Calibration curves and a QC test were run with each assay.

The nature of data set [6]: Plasma LCMS compound levels, in vivo mouse model. Further details: species or system mice. The settings on record: for concentration at 1 h: male, C57BL/6J, mouse, plasma; for Plasma LCMS Compound Levels: pre-dose (16 h). The procedure:
These mice were also shaved weekly.
as §8, §9

For data set [7], the system named is C57BL/6J mice. Nature of the data set: In vivo mouse model, skin and systemic toxicity of topical application (survival).
Excerpt: This study was designed to assess the skin toxicity and gross systemic toxicity of twice daily topical administration of a compound disclosed herein, as well as to evaluate the effect of metabolic lability on systemic toxicity.
Study Objective: The primary objective of this study was to characterize the skin and systemic toxicity of twice daily topical application of a compound disclosed herein, applied for 25 days in mice. Secondary objectives included determination of the 25-day skin and plasma compound levels of formulations containing three dosages of compound of Ex. 2 after application to 10% body surface area (BSA) murine skin; assessment of gross systemic toxicity from the application of compound of Ex. 2 after twice daily application to 10% BSA murine skin for 25 days; and determination of the correlation of skin and plasma compound levels with associated toxicity.
Mice: 8 week old male C57BL/6J mice (Jackson Laboratories) were shaved prior to start of study and weekly.
Compound application: Compounds were dissolved in a 50% DMSO/50% propyelene glycol vehicle. 0.125 mL of the following compounds were applied to the shaved dorsal back of mice (10% BSA) twice daily for 5 days per week for a total of 24 days. The second dose was applied 8 hours after first morning dose. All mice were shaved once per week at application site.
Oral trametinib was dissolved in 0.5% hydroxypropyl methylcellulose (Sigma-Aldrich) and 0.2% Tween-80 (Sigma-Aldrich) and administered by oral gavage (0.2 mL bolus or 10 mg/kg) once daily 5 days per week. These mice were also shaved weekly.
Weekly (Weeks 0-4): body weight measurements weekly, starting week 0 until experiment end; photographs of dorsal back and face of each mouse weekly, starting week 0 until experiment end; skin; and gross stool analysis assessed weekly for heme color, starting week 0 until experiment end.
The study planned for the mice to be sacrificed at Day 25.
Kaplan Meier curves were analyzed to determine progression to skin toxicity for each arm as compared with vehicle. T-test were used to compare compound levels at each dosage. Ki-67+ cells and p-ERK expression were also assessed on a cellular level via immunostaining. Western blots informed semi-quantitative changes in p-ERK expression.

Structures are written as SMILES.

T1 sequence (Q02750 whole entry): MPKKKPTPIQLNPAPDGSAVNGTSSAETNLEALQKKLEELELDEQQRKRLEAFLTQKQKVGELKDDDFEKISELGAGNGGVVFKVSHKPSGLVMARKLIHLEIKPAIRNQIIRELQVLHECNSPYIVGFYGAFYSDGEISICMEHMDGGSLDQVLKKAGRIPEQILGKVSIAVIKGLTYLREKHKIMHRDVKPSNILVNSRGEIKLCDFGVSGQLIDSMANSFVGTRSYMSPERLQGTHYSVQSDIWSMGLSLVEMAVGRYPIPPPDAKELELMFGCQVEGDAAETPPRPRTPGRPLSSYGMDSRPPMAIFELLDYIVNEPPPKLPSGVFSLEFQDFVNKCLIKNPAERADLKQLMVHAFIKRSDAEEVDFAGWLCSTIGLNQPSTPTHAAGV

Regarding `C[C@H]1O[C@@H](O[C@H]2[C@@H](O)C[C@H](O[C@H]3[C@@H](O)C[C@H](O[C@H]4CC[C@@]5(C)[C@H](CC[C@@H]6[C@@H]5C[C@@H](O)[C@]5(C)[C@@H](C7=CC(=O)OC7)CC[C@]65O)C4)O[C@@H]3C)O[C@@H]2C)C[C@H](O)[C@@H]1O` [Digoxin], the “Recover Rate” value in data set [1] came to 96%. Moreover, the “Papp, A-B Value” in data set [1] (single values) is 1.6 ×10⁻⁶ cm/s. Besides, the “Papp, B-A Value” in data set [1] (single values) amounted to 14.1 ×10⁻⁶ cm/s. The efflux ratio at 1 h, 5 μM in data set [2] (MDCK-MDR1) was found to be 9.7. The Papp A→B at 1 h, 5 μM in data set [2] (A-B Mean) is 1.5 ×10⁻⁶ cm/s; in data set [2] (A-B Value, single values), 1.3 ×10⁻⁶ cm/s. The basolateral-to-apical permeability (Papp B→A) at 1 h, 5 μM stood at 14.3 ×10⁻⁶ cm/s in data set [2] (B-A Mean) and 14.6 ×10⁻⁶ cm/s in data set [2] (B-A Value, single values).
For `C#Cc1ccc(Nc2c(C(=O)NOCCO)c3cccnc3n2C)c(F)c1` [Example 3, 2-((4-Ethynyl-2-fluorophenyl)amino)—N-(2-hydroxyethoxy)-1-methyl-1H-pyrrolo[2,3-b]pyridine-3-carboxamide], the IC50 in data set [3] was 2450 nM.
Turning to `O=C(NOCC1CC1)c1ccc(F)c(F)c1Nc1ccc(I)cc1Cl` [Example C1], in data set [4], the CLint is given as 10.37 μL/min/mg protein, the microsomal CLint at 1 μM was determined as 10.4 µL/min/mg and the half-life at 1 μM turned out to be 0.55 h.
The like results for `O=C(NOC[C@H](O)CO)c1ccc(F)c(F)c1Nc1ccc(I)cc1F` [Example C2] were, in that order, 1.02 μL/min/mg protein, 1.02 µL/min/mg and 5.67 h.
For `Cn1cnc2c(F)c(Nc3ccc(Br)cc3F)c(C(=O)NOCCO)cc21` [Example C3] the same measures were 1.25 μL/min/mg protein, 1.25 µL/min/mg and 4.62 h.
For `Cn1cnc2c(F)c(Nc3ccc(Br)cc3Cl)c(C(=O)NOCCO)cc21` [Example C4] the same measures were 2.50 μL/min/mg protein, 2.5 µL/min/mg and 2.3 h.
In the case of `O=C(NOCCO)c1ccc2cncn2c1Nc1ccc(I)cc1F` [Example C5], in data set [4], the CLint was found to be 6.98 μL/min/mg protein, the microsomal CLint at 1 μM turned out to be 6.98 µL/min/mg and the half-life at 1 μM worked out at 0.833 h.
The like results for `CC(=O)Nc1cccc(-n2c(=O)n(C3CC3)c(=O)c3c(Nc4ccc(I)cc4F)n(C)c(=O)c(C)c32)c1` [Example C6] were, in that order, 0.86 μL/min/mg protein, 0.86 µL/min/mg and 6.7 h.
The like results for `O=C(NC[C@@H](O)CO)c1ccncc1Nc1ccc(I)cc1F` [Example C7] were, in that order, 1.29 μL/min/mg protein, 1.29 µL/min/mg and 4.47 h.
In the case of `CC(=O)Nc1cccc(-n2c(=O)n(C3CC3)c(=O)c3c(Nc4ccc(I)cc4F)n(C)c(=O)c(C)c32)c1` [trametinib, reference compound], the “Compound Levels in Neck/Back Skin” value was determined as 3626.06 µg/mL in data set [5] (1 h) and 4520.39 µg/mL in data set [5] (pre-dose (16 h)). For the same compound, the concentration at 1 h amounted to 0.0751 µg/mL in data set [6] (10 mg/kg, oral trametinib) and 2.81 µg/mL in data set [6] (topical 1% trametinib). In addition, the “Plasma LCMS Compound Levels” value in data set [6] (oral trametinib) is reported as 39.93 ng/mL; in data set [6] (topical 1% trametinib) it was 1339.33 ng/mL. Further, the “Survival Rates” value stood at 100% in data set [7] (oral trametinib 0.75 mg/kg daily gavage 5x/week, Day 0); 90% in data set [7] (oral trametinib 0.75 mg/kg daily gavage 5x/week, Day 3); 70% in data set [7] (oral trametinib 0.75 mg/kg daily gavage 5x/week, Day 6); 70% in data set [7] (oral trametinib 0.75 mg/kg daily gavage 5x/week, Day 9); 70% in data set [7] (oral trametinib 0.75 mg/kg daily gavage 5x/week, Day 12); 70% in data set [7] (oral trametinib 0.75 mg/kg daily gavage 5x/week, Day 15). The “Survival Rates” value worked out at 70% in data set [7] (oral trametinib 0.75 mg/kg daily gavage 5x/week, Day 18); 70% in data set [7] (oral trametinib 0.75 mg/kg daily gavage 5x/week, Day 21); 70% in data set [7] (oral trametinib 0.75 mg/kg daily gavage 5x/week, Day 24); 70% in data set [7] (oral trametinib 0.75 mg/kg daily gavage 5x/week, Day 25); 100% in data set [7] (topical Trametinib 1%, twice daily 5 days per week, 10% BSA, Day 0); 100% in data set [7] (topical Trametinib 1%, twice daily 5 days per week, 10% BSA, Day 3). Moreover, the “Survival Rates” value was found to be 100% in data set [7] (topical Trametinib 1%, twice daily 5 days per week, 10% BSA, Day 6); 100% in data set [7] (topical Trametinib 1%, twice daily 5 days per week, 10% BSA, Day 9); 100% in data set [7] (topical Trametinib 1%, twice daily 5 days per week, 10% BSA, Day 12); 80% in data set [7] (topical Trametinib 1%, twice daily 5 days per week, 10% BSA, Day 15); 0% in data set [7] (topical Trametinib 1%, twice daily 5 days per week, 10% BSA, Day 18); 0% in data set [7] (topical Trametinib 1%, twice daily 5 days per week, 10% BSA, Day 21). The “Survival Rates” value in data set [7] (topical Trametinib 1%, twice daily 5 days per week, 10% BSA, Day 24) amounted to 0%; in data set [7] (topical Trametinib 1%, twice daily 5 days per week, 10% BSA, Day 25) it was 0%. The “mortality / weight loss” value in data set [7] (topically-applied 1%, Day 18) was “found dead, or had to be sacrificed due to unacceptable weight loss”.

Broadly, the efflux ratio is the permeability from basolateral to apical divided by that in the opposite direction, in the common usage. As usually defined, the Papp A→B is how fast a substance crosses the layer from the apical side. Higher therefore signals fast passage. As a reminder, the Papp B→A is how fast a substance crosses the layer from the basolateral side. The IC50 is the midpoint of a concentration-inhibition curve.
